Measured values from patent publication US12377110B2, “Fospropofol methods and compositions” (Epalex Corporation, priority 2019, dated 2025).
Where two headings read alike, the source gives them in different places.

How the values were obtained:
[1] = Study No. 15-4 toxicokinetics of fospropofol and propofol in plasma; type: in vivo, Beagle dogs; conditions: for Tmax: read-out: Fospropofol Tmax; for AUC(0-t): read-out: Fospropofol AUC0-6 hr
Experimental: The purpose of Study No. 15-4 (GLP) was to determine the potential toxicity of fospropofol in Beagle dogs when administered once daily by oral gavage for 14 days. […] Because the treatment-related clinical observations (consistent with the expected transient sedative actions of fospropofol) and effects on hematology and clinical chemistry parameters were considered nonadverse, the NOAEL was determined to be 160 mg/kg/day (3200 mg/m^2/day).

[2] = Study A16 Part 1: PK of single ascending oral doses of fospropofol disodium (200 to 2000 mg), fasted healthy adults; type: in vivo, human; conditions: for Cmax: read-out: Fospropofol Cmax
Experimental: Part 1 of Study A16 was a double-blind, randomized, placebo-controlled study to investigate the safety-tolerability and PK of oral administration of single ascending doses of fospropofol disodium to healthy adult male and female volunteers.
Subjects were healthy adults (age 18-55 years inclusive, BMI 18-29.9 kg/m^2). Separate cohorts of 12 subjects each were randomized to receive fospropofol disodium at doses of 200, 400, 800, 1000, 1200, 1600, or 2000 mg (n=10 per cohort) or matching placebo (n=2 per cohort).
Subjects were admitted to the clinical unit for an overnight fast (Day −1), administered study drug on Day 1, and remained in the clinical unit until Day 2.
Fospropofol disodium was formulated as powder in an HPMC capsule, each capsule containing 200 mg of fospropofol disodium (weight adjusted for water content). Placebo was administered as an appropriate number of matching capsules.
Based on PK results from the early cohorts, sampling times were optimized beginning with Cohort 3 (800 mg) to preclose, 5, 10, 15, 20, 25, 30, 37, and 45, minutes and 1, 2, 4, 6, and 9 hours after closing.

[3] = female, beagle, dog, plasma, po, 50 mg/kg, oral gavage fospropofol disodium, Female, 50 mg/kg, Day 1
[4] = female, beagle, dog, plasma, po, 50 mg/kg, oral gavage fospropofol disodium, Female, 50 mg/kg, Day 14
[5] = female, beagle, dog, plasma, po, 100 mg/kg, oral gavage fospropofol disodium, Female, 100 mg/kg, Day 1
[6] = female, beagle, dog, plasma, po, 100 mg/kg, oral gavage fospropofol disodium, Female, 100 mg/kg, Day 14
[7] = female, beagle, dog, plasma, po, 160 mg/kg, oral gavage fospropofol disodium, Female, 160 mg/kg, Day 1
[8] = female, beagle, dog, plasma, po, 160 mg/kg, oral gavage fospropofol disodium, Female, 160 mg/kg, Day 14
[9] = male, beagle, dog, plasma, po, 50 mg/kg, oral gavage fospropofol disodium, Male, 50 mg/kg, Day 1
[10] = male, beagle, dog, plasma, po, 50 mg/kg, oral gavage fospropofol disodium, Male, 50 mg/kg, Day 14
[11] = male, beagle, dog, plasma, po, 100 mg/kg, oral gavage fospropofol disodium, Male, 100 mg/kg, Day 1
[12] = male, beagle, dog, plasma, po, 100 mg/kg, oral gavage fospropofol disodium, Male, 100 mg/kg, Day 14
[13] = male, beagle, dog, plasma, po, 160 mg/kg, oral gavage fospropofol disodium, Male, 160 mg/kg, Day 1
[14] = male, beagle, dog, plasma, po, 160 mg/kg, oral gavage fospropofol disodium, Male, 160 mg/kg, Day 14

CC(C)c1cccc(C(C)C)c1OCOP(=O)(O)O [fospropofol, (2,6-diisopropylphenoxy)methyl dihydrogen phosphate]
Sex differences in fospropofol Cmax or AUC0-6h ([1]; 50, 100, and 160 mg/kg/day for 14 days): no clear sex differences
Tmax ([1]; Beagle, dog, plasma, oral, range over all groups): 5 to 60 min
Increase of fospropofol Cmax and AUC0-6hr with dose ([1]; Days 1 and 14, males and females (except females on Day 14)): less than close proportional
half-life ([1]; both sexes, Beagle, dog, plasma, oral, males and females, read-out: Fospropofol apparent individual terminal half-lives): 18 to 36 min
Cmax [1, 3]: 3.68 µg/mL
AUC(0-t) [1, 3]: 4.71 µg·h/mL
Tmax [1, 3]: 30 to 60 min
Cmax [1, 4]: 3.77 µg/mL
AUC(0-t) [1, 4]: 5.73 µg·h/mL
Tmax [1, 4]: 30 to 60 min
Cmax [1, 5]: 10.1 µg/mL
AUC(0-t) [1, 5]: 11.9 µg·h/mL
Tmax [1, 5]: 15 to 30 min
Cmax [1, 6]: 9.31 µg/mL
AUC(0-t) [1, 6]: 15.1 µg·h/mL
Tmax [1, 6]: 30 to 60 min
Cmax [1, 7]: 7.38 µg/mL
AUC(0-t) [1, 7]: 11.2 µg·h/mL
Tmax [1, 7]: 15 to 60 min
Cmax [1, 8]: 12.7 µg/mL
AUC(0-t) [1, 8]: 16 µg·h/mL
Tmax [1, 8]: 15 to 60 min
Cmax [1, 9]: 5.13 µg/mL
AUC(0-t) [1, 9]: 7.71 µg·h/mL
Tmax [1, 9]: 30 to 60 min
Cmax [1, 10]: 3.3 µg/mL
AUC(0-t) [1, 10]: 4.86 µg·h/mL
Tmax [1, 10]: 30 to 60 min
Cmax [1, 11]: 9.48 µg/mL
AUC(0-t) [1, 11]: 11.7 µg·h/mL
Tmax [1, 11]: 30 to 60 min
Cmax [1, 12]: 6.34 µg/mL
AUC(0-t) [1, 12]: 6.34 µg·h/mL
Tmax [1, 12]: 15 to 60 min
Cmax [1, 13]: 10 µg/mL
AUC(0-t) [1, 13]: 13.5 µg·h/mL
Tmax [1, 13]: 15 to 60 min
Cmax [1, 14]: 6.97 µg/mL
AUC(0-t) [1, 14]: 9 µg·h/mL
Tmax [1, 14]: 4.98 to 60 min
Dose proportionality of fospropofol AUC0-2h, AUC0-T, AUC0-∞, and Cmax (power model) ([2]; 200 mg to 2000 mg): close proportional
AUC ([2]; both sexes, human, plasma, oral, 800 mg, subjects 301-312 (800 mg cohort), Mean, read-out: Fospropofol AUC1): 2.78 µg·h/mL
AUC ([2]; both sexes, human, plasma, oral, 800 mg, subjects 301-312 (800 mg cohort), Mean, read-out: Fospropofol AUC2): 3.33 µg·h/mL
AUC ([2]; both sexes, human, plasma, oral, 800 mg, subjects 301-312 (800 mg cohort), Mean, read-out: Fospropofol AUC4): 3.44 µg·h/mL
Cmax ([2]; both sexes, human, plasma, oral, 800 mg, subjects 301-312 (800 mg cohort), Mean): 6.04 µg/mL
Tmax ([2]; both sexes, human, plasma, oral, 800 mg, subjects 301-312 (800 mg cohort), Mean, read-out: Fospropofol Tmax): 20.4 min
Tmax ([2]; both sexes, human, plasma, oral, 800 mg, subjects 301-312 (800 mg cohort), individual subjects (Subject No. in c0), read-out: Fospropofol Tmax): 30 min
Tmax ([2]; both sexes, human, plasma, oral, 200 to 2000 mg cohorts, read-out: Fospropofol median Tmax (converted)): ~20 min
Cmax ([2]; both sexes, human, plasma, po, 200 mg, oral fospropofol disodium 200 mg, mean): 1.98 µg/mL
Tmax ([2]; both sexes, human, plasma, po, 200 mg, oral fospropofol disodium 200 mg, median, read-out: Fospropofol Tmax): 19.8 min
Cmax ([2]; both sexes, human, plasma, po, 400 mg, oral fospropofol disodium 400 mg, mean): 4.46 µg/mL
Tmax ([2]; both sexes, human, plasma, po, 400 mg, oral fospropofol disodium 400 mg, median, read-out: Fospropofol Tmax): 19.8 min
Cmax ([2]; both sexes, human, plasma, po, 800 mg, oral fospropofol disodium 800 mg, mean): 6.04 µg/mL
Tmax ([2]; both sexes, human, plasma, po, 800 mg, oral fospropofol disodium 800 mg, median, read-out: Fospropofol Tmax): 19.8 min
Cmax ([2]; both sexes, human, plasma, po, 1000 mg, oral fospropofol disodium 1000 mg, mean): 8.24 µg/mL
Tmax ([2]; both sexes, human, plasma, po, 1000 mg, oral fospropofol disodium 1000 mg, median, read-out: Fospropofol Tmax): 19.8 min
Cmax ([2]; both sexes, human, plasma, po, 1200 mg, oral fospropofol disodium 1200 mg, Fasted (Cohort 5), n = 10, mean): 7.11 µg/mL
Tmax ([2]; both sexes, human, plasma, po, 1200 mg, oral fospropofol disodium 1200 mg, Fasted (Cohort 5), n = 10, median, read-out: Fospropofol Tmax): 19.8 min
Cmax ([2]; both sexes, human, plasma, po, 1200 mg, oral fospropofol disodium 1200 mg, mean): 7.11 µg/mL
Tmax ([2]; both sexes, human, plasma, po, 1200 mg, oral fospropofol disodium 1200 mg, median, read-out: Fospropofol Tmax): 19.8 min
Cmax ([2]; both sexes, human, plasma, po, 1600 mg, oral fospropofol disodium 1600 mg, mean): 10.2 µg/mL
Tmax ([2]; both sexes, human, plasma, po, 1600 mg, oral fospropofol disodium 1600 mg, median, read-out: Fospropofol Tmax): 19.8 min
Cmax ([2]; both sexes, human, plasma, po, 2000 mg, oral fospropofol disodium 2000 mg, mean): 17.1 µg/mL
Tmax ([2]; both sexes, human, plasma, po, 2000 mg, oral fospropofol disodium 2000 mg, median, read-out: Fospropofol Tmax): 22.8 min
AUC(0-t) ([2]; both sexes, human, plasma, oral fospropofol disodium 200 mg, mean, read-out: Fospropofol AUC0-T): 0.856 µg·h/mL
AUC(0-inf) ([2]; both sexes, human, plasma, oral fospropofol disodium 200 mg, mean, read-out: Fospropofol AUC0-∞): 0.882 µg·h/mL
half-life ([2]; both sexes, human, plasma, oral fospropofol disodium 200 mg, mean, read-out: Fospropofol t1/2 (converted)): 12.6 min
